Measurements as given in PubChem BioAssay (NCI).
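Protocol summary: plate cells (96-well), add compound at 5 concentrations, incubate 48 h, interpolate endpoints linearly. TGI denotes the concentration required for complete inhibition of growth.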

Key:
Experiment in all cases: NCI-60 cell line screen, 48 h
A549 NSCLC = system: A549 NSCLC
A498 renal = system: A498 renal
OVCAR-8 ovarian = system: OVCAR-8 ovarian
SN12C renal = system: SN12C renal
OVCAR-5 ovarian = system: OVCAR-5 ovarian
DU-145 prostate = system: DU-145 prostate
SF-268 CNS = system: SF-268 CNS
SK-MEL-2 melanoma = system: SK-MEL-2 melanoma
M14 melanoma = system: M14 melanoma
SK-OV-3 ovarian = system: SK-OV-3 ovarian
OVCAR-4 ovarian = system: OVCAR-4 ovarian
HCT-15 colon = system: HCT-15 colon
T-47D breast = system: T-47D breast
SNB-19 CNS = system: SNB-19 CNS
U251 CNS = system: U251 CNS
PC-3 prostate = system: PC-3 prostate
NCI-H23 lung = system: NCI-H23 lung
HCT-116 colon = system: HCT-116 colon
CAKI-1 renal = system: CAKI-1 renal
HOP-62 NSCLC = system: HOP-62 NSCLC
786-0 renal = system: 786-0 renal
SF-539 CNS = system: SF-539 CNS
NCI-H460 lung = system: NCI-H460 lung
MOLT-4 leukemia = system: MOLT-4 leukemia
HT29 colon = system: HT29 colon
UO-31 renal = system: UO-31 renal
TK-10 renal = system: TK-10 renal
MDA-N = system: MDA-N
HOP-92 NSCLC = system: HOP-92 NSCLC
SF-295 CNS = system: SF-295 CNS
UACC-62 melanoma = system: UACC-62 melanoma
OVCAR-3 ovarian = system: OVCAR-3 ovarian
ACHN renal = system: ACHN renal
RPMI-8226 leukemia = system: RPMI-8226 leukemia
MDA-MB-435 = system: MDA-MB-435
MALME-3M melanoma = system: MALME-3M melanoma
MCF7 breast = system: MCF7 breast
HCC-2998 colon = system: HCC-2998 colon
MDA-MB-231 breast = system: MDA-MB-231 breast
SK-MEL-28 melanoma = system: SK-MEL-28 melanoma
SW-620 colon = system: SW-620 colon
RXF 393 renal = system: RXF 393 renal
NCI/ADR-RES ovarian = system: NCI/ADR-RES ovarian
COLO 205 colon = system: COLO 205 colon
SK-MEL-5 melanoma = system: SK-MEL-5 melanoma
K-562 leukemia = system: K-562 leukemia
KM12 colon = system: KM12 colon
NCI-H522 lung = system: NCI-H522 lung
IGROV1 ovarian = system: IGROV1 ovarian
EKVX NSCLC = system: EKVX NSCLC
NCI-H226 lung = system: NCI-H226 lung
HS 578T breast = system: HS 578T breast
CCRF-CEM leukemia = system: CCRF-CEM leukemia
UACC-257 melanoma = system: UACC-257 melanoma

## CCCC1(N2C(=O)c3ccc4c5c(ccc(c35)C2=O)N(C2(CCC)CCCCC2)C4=O)CCCCC1
A549 NSCLC
  TGI: > 100 µM
A498 renal
  TGI: > 100 µM
OVCAR-8 ovarian
  TGI: > 100 µM
SN12C renal
  TGI: > 100 µM
OVCAR-5 ovarian
  TGI: > 100 µM
DU-145 prostate
  TGI: > 100 µM
SF-268 CNS
  TGI: > 100 µM
SK-MEL-2 melanoma
  TGI: > 100 µM
M14 melanoma
  TGI: > 100 µM
SK-OV-3 ovarian
  TGI: > 100 µM
OVCAR-4 ovarian
  TGI: > 100 µM
HCT-15 colon
  TGI: > 100 µM
T-47D breast
  TGI: > 100 µM
SNB-19 CNS
  TGI: > 100 µM
U251 CNS
  TGI: > 100 µM
PC-3 prostate
  TGI: > 100 µM
NCI-H23 lung
  TGI: > 100 µM
HCT-116 colon
  TGI: > 100 µM
CAKI-1 renal
  TGI: > 100 µM
HOP-62 NSCLC
  TGI: > 100 µM
786-0 renal
  TGI: > 100 µM
SF-539 CNS
  TGI: > 100 µM
NCI-H460 lung
  TGI: > 100 µM
MOLT-4 leukemia
  TGI: > 100 µM
HT29 colon
  TGI: > 100 µM
UO-31 renal
  TGI: > 100 µM
TK-10 renal
  TGI: > 100 µM
MDA-N
  TGI: > 100 µM
HOP-92 NSCLC
  TGI: > 100 µM
SF-295 CNS
  TGI: > 100 µM
UACC-62 melanoma
  TGI: > 100 µM
OVCAR-3 ovarian
  TGI: > 100 µM
ACHN renal
  TGI: > 100 µM
RPMI-8226 leukemia
  TGI: > 100 µM
MDA-MB-435
  TGI: > 100 µM
MALME-3M melanoma
  TGI: > 100 µM
MCF7 breast
  TGI: > 100 µM
HCC-2998 colon
  TGI: > 100 µM
MDA-MB-231 breast
  TGI: > 100 µM
SK-MEL-28 melanoma
  TGI: > 100 µM
SW-620 colon
  TGI: > 100 µM
RXF 393 renal
  TGI: > 100 µM
NCI/ADR-RES ovarian
  TGI: > 100 µM
COLO 205 colon
  TGI: > 100 µM
SK-MEL-5 melanoma
  TGI: > 100 µM
K-562 leukemia
  TGI: > 100 µM
KM12 colon
  TGI: > 100 µM
NCI-H522 lung
  TGI: > 100 µM

## CN(CCCNC(=O)c1cn(C)c2c1ccc1ccccc12)CCCNC(=O)c1cn(C)c2c1ccc1ccccc12
A549 NSCLC
  TGI: 2.62 µM
A498 renal
  TGI: 47.9 µM
SN12C renal
  TGI: 2.71 µM
DU-145 prostate
  TGI: 3.08 µM
SF-268 CNS
  TGI: 3.05 µM
M14 melanoma
  TGI: 2.92 µM
OVCAR-4 ovarian
  TGI: 27.3 µM
HCT-15 colon
  TGI: 3.38 µM
IGROV1 ovarian
  TGI: 2.31 µM
SNB-19 CNS
  TGI: 5.65 µM
PC-3 prostate
  TGI: 2.83 µM
NCI-H23 lung
  TGI: 2.95 µM
HCT-116 colon
  TGI: 3.12 µM
CAKI-1 renal
  TGI: 2.87 µM
EKVX NSCLC
  TGI: 3.42 µM
HOP-62 NSCLC
  TGI: 2.95 µM
786-0 renal
  TGI: 4.5 µM
NCI-H226 lung
  TGI: 12 µM
NCI-H460 lung
  TGI: 2.83 µM
HS 578T breast
  TGI: 3.19 µM
HT29 colon
  TGI: 2.89 µM
UO-31 renal
  TGI: 2.75 µM
MDA-N
  TGI: 2.76 µM
HOP-92 NSCLC
  TGI: 3.57 µM
SF-295 CNS
  TGI: 16.8 µM
CCRF-CEM leukemia
  TGI: > 100 µM
UACC-62 melanoma
  TGI: 4.68 µM
OVCAR-3 ovarian
  TGI: 2.84 µM
ACHN renal
  TGI: 3.33 µM
HCC-2998 colon
  TGI: 2.7 µM
SK-MEL-28 melanoma
  TGI: 3.67 µM
SW-620 colon
  TGI: 6.41 µM
NCI/ADR-RES ovarian
  TGI: 3.34 µM
UACC-257 melanoma
  TGI: 3.06 µM
COLO 205 colon
  TGI: 5.07 µM
SK-MEL-5 melanoma
  TGI: 3.33 µM
KM12 colon
  TGI: 2.96 µM
